# According to the METLIN SMRT retention time set (Domingo-Almenara et al. 2019):
# Experiment: gradient 5% acetonitrile 3 min, to 50% in 2 min, to 85% in 15 min, held 3 min, 100 µL/min
# Details: column: Zorbax Extend-C18 2.1 x 50 mm; eluents: water / acetonitrile, 0.1% formic acid
# Outline: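 Each retention time is based on an adduct peak selected computationally and verified by manual inspection. Measurements used HPLC–quadrupole time-of-flight mass spectrometry in positive and negative ionization mode on mixtures of ~100 pure standards. Chromatography ran on a Zorbax Extend-C18 column (2.1 × 50 mm, 1.8 μm) at 100 μL/min with water and acetonitrile, each containing 0.1% formic acid, and dead and dwell volumes of 40 μL and 900 μL.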
row,Structure (SMILES),RP-LC retention time [s]
1,O=C(CSc1ccc(N2CCCC(C(=O)NC3CC3)C2)nn1)Nc1ccccc1Cl (centres undefined),673
2,CCCCN1C(=O)C(CC(=O)NCC(C)C)Sc2ncccc21 (centres undefined),784
3,Cn1nccc1-c1cccc(-c2noc(Cc3ccc(Br)cc3)n2)c1,1150
4,CCOc1ccc(N2C=C(C#N)S(=O)(=O)c3ccccc32)cc1,943
5,Cc1ccc(C)c(NC(=O)c2c(O)c3cccnc3n(-c3ccc(F)cc3)c2=O)c1,1360
6,CC1(C)CC(=O)C2=C(C1)Nc1ccccc1N(C(=O)c1ccccc1)C2c1ccco1 (centres undefined),825
7,Cc1cc(N2CCC(C)CC2)n2nc(-c3ccc(Cl)cc3)nc2n1,1170
8,CCc1cc(=O)n(CC(=O)NCc2ccc(C)cc2)c(N)n1,610
9,COc1ccc(CNC(=O)Cn2c(=O)cc(-c3nc(C)no3)c3ccccc32)cc1,810
10,CCOc1ccc(OCC)c(NS(=O)(=O)c2cc(-c3cc(CC)no3)cs2)c1,1090
11,CCOc1ccc(C(=O)NCCCN2CCN(c3ccccc3)CC2)cc1,586
12,CSc1cccc(NC(=O)N2CCN(C)CC2)c1,647
13,CCCn1nnc(NCc2ccc(-c3ccc(Br)cc3Cl)o2)n1,1230
14,CN(C)c1ncncc1N1CCC(C(=O)N2CCCC2)CC1,567
15,O=C(CN1CC=C(c2cnn(-c3ccc(F)cc3)c2)CC1)N1CCCCC1,661
16,c1cn(-c2cc(N3CCCC3)ncn2)cn1,556
17,COc1ccc(F)cc1S(=O)(=O)N1CCCC(Cn2c(C3CC3)nc3cccnc32)C1 (centres undefined),742
18,O=C(C1CCCC1)N1CC(N(Cc2ccccn2)C(=O)Nc2ccccc2)C1,579
19,COC(=O)CNC(=O)Nc1ncc(-c2ccc(OC)cc2)n1C,607
20,COc1cc2c(cc1OC)C(Nc1nc(-c3ccccc3)cs1)=NC(C)(C)C2,878
21,COc1ccc(NC(=O)c2noc3c2CCCC3)cc1OC,842
22,Cc1c(Cl)cccc1NC(=O)CSc1nnc2c3cc(-c4ccc(F)cc4)nn3ccn12,936
23,CCC(C)Nc1nc(NC)nc(-n2cnc(SC)n2)n1 (centres undefined),790

row,Structure (SMILES),RP-LC retention time [s]
1,Cc1cc(Cl)ccc1S(=O)(=O)N1CCCC(Cn2cnc3cccnc32)C1 (centres undefined),853
2,COC(=O)c1ccccc1NC(=O)c1nnn(-c2cc(C)ccc2Cl)c1C,1230
3,COc1ccc(-c2nc3ccccc3c3nnc(SCc4cn5ccccc5n4)n23)cc1,742
4,CN(C)c1ccc(C(=O)N2CCC(c3cc(N)on3)CC2)cc1,614
5,CC1CCN(c2cc(-n3cnc(C(=O)Nc4ccc5c(c4)OCO5)c3)ncn2)CC1,1060
6,CCOCc1cc(OC)c(-c2ccc(C[C@H](NC(=O)c3c(F)cccc3F)C(=O)O)cc2)c(OC)c1,1020
7,Oc1cc2c(c(Cl)c1O)CCNC[C@@H]2c1ccccc1,648
8,O=C(NC1CCCC1)C1CCCN(S(=O)(=O)c2c[nH]c(C(=O)N3CCCC3)c2)C1 (centres undefined),698
9,Cc1cccc(NC(=O)N2CCC3(CC2)NC(=O)c2ccccc2O3)c1,723
10,COc1cc(C(C)=O)ccc1OCC(=O)NCCn1cnc(-c2ccc(F)cc2)cc1=O,661
11,COc1ccc(C2C(C)C(=O)C(C)C(c3ccc(OC)cc3)N2N=O)cc1 (centres undefined),1000
12,COc1ccc(-c2ncccc2CNS(=O)(=O)c2c(C)cccc2Cl)cc1,719
13,Cc1cc(C)c(NC(=O)Cn2nc3c4ccccc4ncn3c2=O)c(C)c1,671
14,O=C(NCCC1=CCCCC1)C1CCN(S(=O)(=O)c2ccc(-c3noc(C4CC4)n3)cc2)CC1,1090
15,O=C(NCc1ccccc1Cl)C1=C2CCCN2c2ccc(F)cc2S1(=O)=O,913
16,COc1cc(OC)c(NC(=O)c2cc3c(n(-c4ccc(F)cc4)c2=O)CCCC3=O)cc1Cl,970
17,CCc1ccc(S(=O)(=O)N2CCC(n3cnnc3C3CC3)CC2)cc1,772
18,O=C(N1CCN(c2ccccc2F)CC1)C1(CCO)CCN(c2ncccn2)C1 (centres undefined),652
19,COc1ccc(N2CCN(C(=O)NC3CCOCC3)CC2)cc1,599
20,Clc1ccc(N2CCN(Cc3cc4ccccn4n3)CC2)cc1,754
21,CCN1C(=O)c2cccnc2Sc2cc(CNC(=O)c3ccc(OC)cc3)ccc21,755
22,Cc1cc(C)n(CCC(=O)NCc2cccnc2Oc2ccccc2)n1,706
23,CCC(=O)Nc1ccc(-n2cnc(C(=O)NC(C)c3ccccc3)c2)nc1 (centres undefined),722

row,Structure (SMILES),RP-LC retention time [s]
1,O=C(c1cn(-c2ccc(-c3nc(C4CC4)no3)cn2)cn1)N1CCCCC1,864
2,CC(=O)c1cccc(NC(=O)CN2C(=O)COc3ccc(C(=O)N(C)C)cc32)c1,651
3,CCOC(=O)N1CCN(c2nc(F)c(F)c(S(=O)(=O)CCN3C(=O)CCC3=O)c2F)CC1,836
4,COC(=O)c1ccc2c(=O)n(-c3cc(C)cc(C)c3)c(N3CCCC3)nc2c1,1240
5,O=c1c2ccccc2c(-c2nc(-c3cccnc3)no2)nn1-c1ccc(F)cc1,998
6,CCC(CC)C(=O)Nc1nc(-c2ccc3c(c2)NC(=O)CO3)cs1,846
7,CCN1C(=O)COc2ccc(-c3noc(C4CC(=O)N(c5ccccc5)C4)n3)cc21 (centres undefined),879
8,CCOC(=O)N1CCC(NC(=O)C2CCCN(c3cc(=O)n(C)c(=O)n3C)C2)CC1 (centres undefined),621
9,Cc1cccc(N2CCN(C(=O)c3sc4ncccc4c3-n3cccc3)CC2)c1,1060
10,COc1ccc(C(=O)N2CCCn3nc(-c4ccc(Cl)cc4)cc3C2)cn1,881
11,Cc1ccc(C(C)C)c(OCC(=O)Nc2ccc(C(=O)O)cc2)c1,929
12,CC(C)CCNC(=O)Cn1nc2c3cc(-c4ccc(F)cc4)nn3ccn2c1=O,876
13,O=C(c1csc(C(=O)N2CCCC2)n1)N1CCN(Cc2ccccc2)CC1,603
14,CCOC(=O)c1c(C)c(CCC(=O)N2CCN(c3ccccn3)CC2)n(C)c1C,616
15,O=C(CN1CCN(C(=O)Nc2ccc(Cl)cc2)CC1=O)N1CCN(C2CCCCC2)CC1,624
16,COc1ccc(-n2ccc(=O)c(-c3nc(-c4ccc(F)c(Cl)c4)no3)n2)cc1,966
17,CCCS(=O)(=O)N1CCC(N2C[C@H](OC)[C@@H]2c2cccnc2)CC1,561
18,CC(=O)Nc1cc(C(=O)NCCC2=CCCCC2)c2ccc(C)nc2c1,652
19,CCOC(=O)c1cc(S(=O)(=O)N2CCCC2C(=O)N2CCc3ccccc32)cn1C (centres undefined),696
20,COc1ccc(Cn2cc(S(=O)(=O)N3CCCCCC3)ccc2=O)cc1,818
21,CN(CCc1noc(-c2ccc(F)cc2)n1)C(=O)Nc1cc(F)ccc1F,924
22,Cc1csc(C(=O)NC2CNC(=O)C2)c1 (centres undefined),572
23,COC[C@@H]1CN(Cc2c(C)n[nH]c2C)C[C@H]1c1ccncc1,559

row,Structure (SMILES),RP-LC retention time [s]
1,CC(C(=O)N1CCN(C2CCCCC2)CC1)C1CCN(S(=O)(=O)c2cccs2)CC1 (centres undefined),664
2,COCCNC(=O)C1CCN(C(=O)c2cc3ccsc3n2Cc2ccc(Cl)cc2)CC1,843
3,O=C(Cc1csc(-n2cccc2)n1)Nc1ccc(-n2cnnn2)cc1,731
4,Cc1[nH]c(C(=O)N2CCC(CC(=O)NCc3ccccc3Cl)CC2)c(C)c1C(=O)OC(C)C,876
5,Cc1ccc(C)c(C(=O)N2CCc3c(c(-c4nc(C5CC5)no4)nn3C)C2)c1,854
6,Cc1ccc(Cn2c(C)c(CNCc3ccco3)c(C(=O)O)c2C)cc1,666
7,Cc1ccc(C)c(-c2cc3c(=O)n(Cc4nc(-c5ccccc5)no4)ncn3n2)c1,1200
8,CC(C)n1c(N2CCN(C(=O)c3cccnc3)CC2)cc(=O)n(C(C)C)c1=O,602
9,O=C1C(c2cccnc2)N(c2ccc3c(c2)OCCO3)C(=O)CN1c1ccccc1 (centres undefined),644
10,O=C(CSc1ccncc1)N1CCCn2nc(-c3ccc(Cl)cc3)cc2C1,661
11,CC(C)c1cc(C(=O)NC2CCCCCC2)nc2ccnn12,1170
12,CC(C)c1cc(-c2ccc(F)c3ccccc23)nc(N)n1,882
13,Cc1c(-c2noc(C(=O)NCCCN3CCCCCC3)n2)oc2ccccc12,692
14,Cc1cccc(OCc2nc(-c3cccc(-c4csc(C)n4)c3)no2)c1,1250
15,Cc1cc(NC(=O)CN2C(=O)CN(C)C(=O)c3ccccc32)ccc1Br,765
16,COc1ccc(-c2ncc3c(n2)CCN(C(=O)c2ccccc2Br)C3)cc1,948
17,COc1ccc(-c2nnc(-c3ccccc3Cl)o2)cc1S(=O)(=O)N1CCOCC1,871
18,CN1CCC(N2CCN(C(=O)c3cc(-c4ccc(F)cc4)cn3C)CC2)CC1,576
19,CCc1noc([C@@H]2CC(F)(F)CN2C(=O)c2nccn2C)n1,744
20,COc1ccc(N2C(=O)C3N=NN(Cc4nc(-c5ccc(C)c(C)c5)no4)C3C2=O)cc1 (centres undefined),1050
